Conditions: 101.33 kPa, Crystal; for molar entropy: Small (less than 1 g) adiabatic calorimetry

O=P([O-])([O-])[O-].[La+3] [lanthanum orthophosphate]
Conditions | molar entropy [J/K/mol]
2 K | 0.00041
4 K | 0.00372
6 K | 0.01262
8 K | 0.0291
10 K | 0.0561
12 K | 0.09746
14 K | 0.1576
16 K | 0.2412
18 K | 0.3527
20 K | 0.4961
25 K | 1.015
30 K | 1.776
35 K | 2.783
40 K | 4.024
45 K | 5.479
50 K | 7.119
60 K | 10.84
70 K | 14.97
80 K | 19.34
90 K | 23.86
100 K | 28.43
110 K | 33.01
120 K | 37.56
130 K | 42.08
140 K | 46.55
150 K | 50.59
160 K | 55.29
170 K | 59.57
180 K | 63.77
190 K | 67.91
200 K | 71.98
210 K | 75.99
220 K | 79.93
230 K | 83.81
240 K | 87.62
250 K | 91.37
260 K | 95.06
270 K | 98.69
280 K | 102.3
290 K | 105.8
300 K | 109.2
320 K | 116
340 K | 122.5
360 K | 128.8
373 K | 132.9
400 K | 141
450 K | 155.1
500 K | 168.2
550 K | 180.3
600 K | 191.7
650 K | 202.4
700 K | 212.6
750 K | 222.1
800 K | 231.3
850 K | 240
900 K | 248.3
950 K | 256.3
1000 K | 263.9
1050 K | 271.3
1100 K | 278.5
1150 K | 285.4
1200 K | 292.1
1250 K | 298.6
1300 K | 305
1350 K | 311.1
1400 K | 317.1
1450 K | 323
1500 K | 328.7
1550 K | 334.3
1600 K | 339.8

Conditions | mass density [kg/m3]
293 K, X-ray diffraction | 5076

Reference: the NIST ThermoML archive (doi:10.1016/j.tca.2008.05.004)
